Measured values as given in publication PMC8215295, “Identification and characterization of the pyridoxal 5’-phosphate allosteric site in Escherichia coli pyridoxine 5’-phosphate oxidase” (The Journal of Biological Chemistry, 2021).
Several values for one entry are separate records, joined by “and”; a condition that tells them apart may be missing. Identical values can stand only once. Entries after “also recorded” stand apart in the source; their conditions may differ.

Experiments:
[1] = biological target: T1, ePNPO K145A/F177A variant (Escherichia coli, UniProt P0AFI7, F177A/K145A); experiment: Fluorimetric PLP binding equilibrium
T1 construct: the entire polypeptide chain is made by 218 residues; made in house; host or cells: E. coli MDS00, pET22b(+)
T1 sequence (P0AFI7 whole entry K145A/F177A): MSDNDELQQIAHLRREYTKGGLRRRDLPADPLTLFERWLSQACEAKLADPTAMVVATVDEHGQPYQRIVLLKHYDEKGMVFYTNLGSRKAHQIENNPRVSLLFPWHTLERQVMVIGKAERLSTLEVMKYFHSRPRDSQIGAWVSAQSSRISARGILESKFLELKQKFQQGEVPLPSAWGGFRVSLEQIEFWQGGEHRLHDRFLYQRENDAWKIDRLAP
Description: (§1) Binding of PLP to ePNPO variants was also analyzed using the spectrofluorometric method previously employed for the wildtype enzyme ([5]), which is based on the resulting increase of FMN fluorescence emission.

[2] = biological target: T2, ePNPO N84A/K145A/F177A variant (Escherichia coli, UniProt P0AFI7, F177A/K145A/N84A); experiment: Fluorimetric PLP binding equilibrium
T2 construct: the entire polypeptide chain is made by 218 residues; made in house; host or cells: E. coli MDS00, pET22b(+)
T2 sequence (P0AFI7 whole entry N84A/K145A/F177A): as the sequence (P0AFI7 whole entry K145A/F177A) above, with N84A counted along it
Description: as §1

[3] = biological target: T3, ePNPO N84W/K145A/F177A variant (Escherichia coli, UniProt P0AFI7, F177A/K145A/N84W); experiment: Fluorimetric PLP binding equilibrium
T3 construct: the entire polypeptide chain is made by 218 residues; made in house; host or cells: E. coli MDS00, pET22b(+)
T3 sequence (P0AFI7 whole entry N84W/K145A/F177A): as the sequence (P0AFI7 whole entry K145A/F177A) above, with N84W counted along it
Description: as §1

[4] = biological target: T1, ePNPO K145A/F177A variant; experiment: PLP retention after SEC; format: binding; settings: 100 μM enzyme + equimolar PLP, with respect to protein subunits
Description: (§2) It is known by previous experiments on wildtype ePNPO that, when the protein is incubated with PLP and then passed through an SEC column, it retains PLP tightly bound to it ([7]). […] All ePNPO variants (100 μM) were incubated with an equimolar amount of PLP. Then, they were passed through an SEC column and the stoichiometry of protein-bound PLP with respect to protein subunits was determined. The percentage of protein-bound PLP was 72 ± 8, 73 ± 10, and 73 ± 19, with the K145A/F177A, N84A/K145A/F177A and N84W/K145A/F177A ePNPO variants, respectively (Table 1).

[5] = biological target: T2, ePNPO N84A/K145A/F177A variant; experiment: PLP retention after SEC; format: binding; settings: 100 μM enzyme + equimolar PLP, with respect to protein subunits
Description: as §2

[6] = biological target: T3, ePNPO N84W/K145A/F177A variant; experiment: PLP retention after SEC; format: binding; settings: 100 μM enzyme + equimolar PLP, with respect to protein subunits
Description: as §2

wildtype ePNPO [7] = biological target: T4, wildtype ePNPO (Escherichia coli, UniProt P0AFI7); experiment: PLP retention after SEC; format: binding; settings: 100 μM enzyme + equimolar PLP, with respect to protein subunits
T4 construct: the entire polypeptide chain is made by 218 residues; made in house; host or cells: E. coli MDS00, pET22b(+)
T4 sequence (P0AFI7 whole entry): as the sequence (P0AFI7 whole entry K145A/F177A) above, with A145K, A177F counted along it
Description: as §2

wildtype ePNPO [8] = biological target: T4, wildtype ePNPO; settings: read-out: KD^PLP, fluorimetric PLP binding equilibrium; cited from earlier work
wildtype ePNPO [9] = biological target: T4, wildtype ePNPO; settings: cited from earlier work
wildtype ePNPO [10] = biological target: T4, wildtype ePNPO; settings: in solution; cited from earlier work
[11] = test system: ePNPO quadruple variant (K72I/Y129F/R133L/H199A); settings: ePNPO quadruple variant with impaired active site; cited from earlier work
[12] = test system: human pyridoxine 5’-phosphate oxidase; parameters: method as in PMID 32788630; settings: human PNPO; parabolic inhibition model; cited from earlier work
ePNPO = settings: cited from earlier work
ePNPO R23L variant [13] = biological target: T5, ePNPO R23L variant (Escherichia coli, UniProt P0AFI7, R23L); experiment: PLP retention after SEC; settings: 100 μM enzyme + equimolar PLP, with respect to protein subunits
T5 sequence (P0AFI7 whole entry R23L): as the sequence (P0AFI7 whole entry K145A/F177A) above, with R23L, A145K, A177F counted along it

ePNPO R23L/R24L variant [14] = biological target: T6, ePNPO R23L/R24L variant (Escherichia coli, UniProt P0AFI7, R23L/R24L); experiment: PLP retention after SEC; settings: 100 μM enzyme + equimolar PLP, with respect to protein subunits
T6 sequence (P0AFI7 whole entry R23L/R24L): as the sequence (P0AFI7 whole entry K145A/F177A) above, with R23L, R24L, A145K, A177F counted along it

ePNPO R23L variant [15] = biological target: T5, ePNPO R23L variant; experiment: Fluorimetric PLP binding equilibrium
ePNPO R23L/R24L variant [16] = biological target: T6, ePNPO R23L/R24L variant; experiment: Fluorimetric PLP binding equilibrium
R23L/R24L ePNPO = R23L/R24L ePNPO (Escherichia coli, UniProt P0AFI7, R23L/R24L); experiment: PLP binding stoichiometry, fluorimetric titration; settings: titration of 2, 4 and 8 μM ePNPO with PLP
Chain of R23L/R24L ePNPO (P0AFI7 whole entry R23L/R24L): as the sequence (P0AFI7 whole entry K145A/F177A) above, with R23L, R24L, A145K, A177F counted along it

ePNPO R23L/R24L variant [17] = biological target: T6, ePNPO R23L/R24L variant; experiment: biochemical; format: biochemical; parameters: the entire polypeptide chain is made by 218 residues; made in house; host or cells: E. coli MDS00, pET22b(+)
Description: Initial velocity data obtained with all variant forms were fitted to the Michaelis–Menten equation in order to obtain apparent VMAX and KM values as a function of PLP concentration.
Figure 7 Kinetic analysis of PLP inhibition with Arg-cage variants. […] Initial velocity measurements shown in the left panels are the average ± standard deviation of three independent measurements. Saturation curves were fitted to the Michaelis–Menten equation, obtaining apparent VMAX and KM values as a function of PLP concentration. These are represented as 1/VMAX (blue symbols) and KM/VMAX (red symbols) in the right panels, in order to facilitate the interpretation of the PLP inhibition mechanism from the shape of graphs, which correspond to the classic secondary plots of the Y-intercept and slope derived from Lineweaver–Burk plots. As detailed in the Experimental Procedures section, initial velocity data and 1/VMAX and KM/VMAX values of each data set were globally fitted to Equations (3), (4), (5), obtaining the continuous lines shown in the graphs and the parameter values shown in Table 3.
In order to analyze the above-mentioned kinetic data, a general inhibition model was considered (Fig. 8A), in which PLP binds at both the active and allosteric sites. […] Therefore, the dissociation constant of the substrate binding equilibrium may be assumed to correspond to the Michaelis–Menten constant (KM) derived from steady-state kinetic measurements. Equations describing the dependence of initial velocity, 1/VMAX, and KM/VMAX on substrate and PLP concentration were derived on the basis of these assumptions (Equations (3), (4), (5)). Using these equations, initial velocity data as a function of substrate concentration, obtained at all different fixed PLP concentrations, were globally fit together with the previously obtained values of apparent 1/VMAX and KM/VMAX as a function of PLP concentration.
Inhibition kinetics were measured in 50 mM Na-Hepes pH 7.6. […] All saturation curves obtained by varying PNP at a fixed PLP concentration were independently analyzed using the Michaelis–Menten equation, obtaining apparent VMAX and apparent KM values, which were then used to calculate 1/appVMAX and appKM/appVMAX as a function of PLP concentration.

[18] = biological target: the molecule itself; experiment: crystal structure; ePNPOqm without PLP, space group P3(1) 2 1, 1.56 Å; one subunit in the asymmetric unit, dimer generated by the crystallographic 2-fold axis; hanging drop, (NH4)2SO4, 298 K

Molecule: Cc1ncc(COP(=O)(O)O)c(C=O)c1O [PLP, Pyridoxal 5’-phosphate]
- Kd [1]: 470 ± 60 nM
- Kd [2]: 360 ± 50 nM
- Kd [3]: 330 ± 70 nM
- PLP (%) protein-bound PLP retained after SEC [4]: 72 ± 8%
- PLP (%) protein-bound PLP retained after SEC [5]: 73 ± 10%
- PLP (%) protein-bound PLP retained after SEC [6]: 73 ± 19%
- PLP (%) protein-bound PLP retained after SEC (wildtype ePNPO [7]): 70% and 69 ± 19%
- Kd (wildtype ePNPO [8]): 150 nM
- αKI (PLP binding at allosteric site of ES complex) (wildtype ePNPO [9]; WT, determined according to Figure 2A model): 7.13 ± 0.52 µM
- Ki (wildtype ePNPO [9]; read-out: KI (PLP binding at the allosteric site), WT, determined according to Figure 2A model): 590 ± 700 nM
- type of PLP inhibition (wildtype ePNPO [9]; wildtype ePNPO): linear mixed-type inhibition
- stoichiometry of PLP binding to the allosteric site (wildtype ePNPO [10]): one PLP molecule per protein dimer
- stoichiometry of PLP binding [11]: two PLP molecules per dimer
- α value (allosteric coupling) [12]: about 3
- β coefficient (reduction of kCAT of PES complex) [12]: 0.15
- kOFF of PLP binding (ePNPO): 3.2 s⁻¹
- kON of PLP binding (ePNPO): 1.13e+07 M⁻¹ s⁻¹
- PLP (%) protein-bound PLP retained after SEC (ePNPO R23L variant [13]): 38 ± 11%
- PLP (%) protein-bound PLP retained after SEC (ePNPO R23L/R24L variant [14]): 30 ± 8%
- Kd (ePNPO R23L variant [15]): 580 ± 120 nM
- Kd (ePNPO R23L/R24L variant [16]): 1000 ± 90 nM
- PLP binding stoichiometry (R23L/R24L ePNPO): two molecules of PLP per protein subunit; also recorded: four PLP molecules per enzyme dimer
- α (allosteric coupling coefficient) (ePNPO R23L/R24L variant [17]): 6.6
- γ factor (PLP active site / allosteric site coupling) (ePNPO R23L/R24L variant [17]): 0.31
- type of PLP inhibition (ePNPO R23L/R24L variant [17]; Hepes buffer): parabolic inhibition
- Ki (ePNPO R23L/R24L variant [17]; KI (PLP binding at the allosteric site), global fit (Fig. 8A model)): 820 ± 20 nM
- Ki (ePNPO R23L/R24L variant [17]; KX (PLP binding at the active site), global fit (Fig. 8A model)): 6580 ± 620 nM
- αKI (PLP binding at allosteric site of ES complex) (ePNPO R23L/R24L variant [17]; global fit (Fig. 8A model)): 5.39 ± 1.14 µM
- β (coefficient reducing kCAT of PES complex) (ePNPO R23L/R24L variant [17]; global fit (Fig. 8A model)): 0.42 and 0.42 ± 0.05
- Ki (ePNPO R23L/R24L variant [17]; γKX (PLP binding at active site of PE complex), global fit (Fig. 8A model)): 2050 ± 60 nM

B1: Escherichia coli pyridoxine 5'-phosphate oxidase quadruple variant K72I/Y129F/R133L/H199A (enzyme, UniProt P0AFI7 1-218, looked up)
chain: MSDNDELQQIAHLRREYTKGGLRRRDLPADPLTLFERWLSQACEAKLADPTAMVVATVDEHGQPYQRIVLLIHYDEKGMVFYTNLGSRKAHQIENNPRVSLLFPWHTLERQVMVIGKAERLSTLEVMKFFHSLPRDSQIGAWVSKQSSRISARGILESKFLELKQKFQQGEVPLPSFWGGFRVSLEQIEFWQGGEHRLADRFLYQRENDAWKIDRLAP
notes: pyridoxine 5'-phosphate oxidase (PNPO, EC 1.4.3.5) of Escherichia coli, encoded by pdxH; the entire polypeptide chain is made by 218 residues; active site impaired by four substitutions; Gene cloned in pET22b(+) between NdeI and NcoI; no tag is mentioned; Modelled residues: 7-218 in 6YLZ; 17-126 and 176-218 (chain A), 14-166 and 170-218 (chain B) in 6YMH; also called ePNPOqm; source: E. coli …
- stoichiometry N [18]: 2
